Entries after “also recorded” stand apart in the source; their conditions may differ.
Columns and labels:
lettuce [1] = assay: Size of roots and leaves of harvested lettuce; format: in vivo; settings: for Leaves (each) Width: control 3-5 cm; for Root (as a whole) Width: control 6 cm; for Root (as a whole) Length: control 8 cm; for Leaves (each) Length: control 20-21 cm; for Size of roots and leaves / plant growth compared with control: approximately eight weeks (two months) after sowing
From the text: A commercial plant box as shown in FIG. 1A was used for the experiment. The bottom one half was filled with sandbox sand, and the top layer was filled with six inches of non-fertilized soil. The level of the soil was four inches below the top of the container. The plant box was partitioned into three sections with physical barriers in between, from the top of the soil to the bottom of the plant box, as illustrated in FIG. 1B.
A single straight line of 0.25-inch-deep trough was formed in each section. Then, lettuce seeds were placed in the trough according to the methods laid out in Table 1 below. Each section was watered daily with tap water.
Approximately eight weeks after sowing, a portion of each group was harvested, and size of the roots and leaves of the harvested lettuce was measured, as summarized in Table 3 below.

lettuce [2] = assay: Browning of harvested and cut lettuce; format: in vivo
From the text: Browning of the lettuce harvested at approximately eight weeks after sowing were examined for experimental groups 2 and 3. The cut end of the stalk and the cut area on the leaves were observed. First browning appeared on the cut end six days after harvesting and cutting.

lettuce [3] = assay: Remaining lettuce observed until final harvest (wilting, size, pest holes); format: in vivo; settings: approximately 14 weeks after sowing
red azaleas = assay: Flowering of red azaleas; format: in vivo, azalea (red bird variety); settings: small amount of PCA crystals around the stem
From the text: In one of the two azalea plants (red bird variety), small amount of PCA crystals were placed around the stem, and both were watered daily. The plant treated with PCA bloomed in three weeks, and the other plant bloomed in seven weeks.

pink azaleas = assay: Flowering and sprouting of pink azaleas; format: in vivo, pink azalea
From the text: In the experimental plant, small amount of PCA crystals were placed around the stem, and both plants were watered daily.

rice = settings: had been reported; cited from earlier work
[4] = approximately eight weeks after sowing

SMILES | Shape of root and leaves compared with other groups (lettuce [1]; [4]) | Leaves (each) Width (lettuce [1]; [4]) | Root (as a whole) Width (lettuce [1]; [4]) | Root (as a whole) Length (lettuce [1]; [4]) | Leaves (each) Length (lettuce [1]; [4]) | Size of roots and leaves / plant growth compared with control (lettuce [1]) | Time to first browning on the cut end after harvesting and cutting (lettuce [2]; lettuce harvested approximately eight weeks after sowing) | Browning in the cut areas of the leaves (lettuce [2]; six days after cutting) | Browning on cut end of the stalk compared with control (lettuce [2]; six days after harvesting and cutting) | Size of leaves and roots at final harvest, group 3 versus group 2 (lettuce [3]) | Speed of flowering compared with untreated plant (red azaleas) | Time to bloom (red azaleas; watered daily, untreated plant seven weeks) | Blooming compared with control plant (pink azaleas; approximately five weeks after placing PCA crystals around the stem) | Flowering, buds and shoots compared with control plant (pink azaleas; approximately seven weeks after placing PCA crystals, control wilted) | Buds compared with control plant (pink azaleas; approximately six weeks after placing PCA crystals) | Overall flowering, sprouting and budding compared with control (pink azaleas; summary) | Effect on growth of some plant species, e.g., rice (rice)
O=C(O)c1ccc(O)c(O)c1 [PCA coating, protocatechuic acid] | the root was relatively narrower, and the leaves were relatively wider and shorter; also recorded: a different shaped single root | 4-7 cm | 3-5 cm | 8-11 cm | 17-18 cm | – | – | – | – | – | – | – | – | – | – | – | –
O=C(O)c1ccc(O)c(O)c1 [PCA crystals, protocatechuic acid] | – | 4-6 cm | 9 cm | 10 cm | 24 cm | bigger roots and leaves than the control | six | no browning was observed; also recorded: no browning was seen where leaves were cut | not as thick as in the control group; also recorded: did not show thick brown covering on the stump | larger and wider leaves and larger roots than experimental group 2 | more than twice as fast | three | started to bloom before the control plant did, and had more flowers blooming than the control plant | continued to flower and had more buds and taller shoot of stems than the control | had many more buds on the top yet to flower | flowered sooner, added sprouts sooner, and had budding that lasted longer than the control | –
O=C(O)c1ccc(O)c(O)c1 [PCA, protocatechuic acid] | – | – | – | – | – | enhanced plant growth; larger root system and larger leaves than the control | – | – | – | – | – | – | – | – | – | – | no effect on growth

— patent publication US20210371353A1, “FERTILIZER COMPOSITIONS AND PLANTS CONTAINING PROTOCATECHUIC ACID, AND USES THEREOF” (priority 2020, published 2021)
